Measurements: patent US5608056A, “Substituted 3-pyrrolidinylthio-carbapenems as antimicrobial agents” (Fujisawa Pharmaceutical Co., Ltd., priority 1992, dated 1997)

Test system: P. aeruginosa IAM1095
Assay: in vitro antimicrobial activity, two-fold agar-plate dilution method (MIC)
Type: cell-based
Conditions: Pseudomonas aeruginosa, heart infusion agar (HI-agar), 10^6 viable cells per ml, 37° C., 20 hours, read-out: minimal inhibitory concentration (MIC)
Protocol: in vitro Antimicrobial Activity was determined by the two-fold agar-plate dilution method as described below.
One loopful of an overnight culture of a test strain in Trypticase-soy broth (10^6 viable cells per ml) was streaked on heart infusion agar (HI-agar) containing graded concentrations of the test compound, and the minimal inhibitory concentration (MIC) was expressed in terms of μg/ml after incubation at 37° C. for 20 hours.

MIC: 0.78 µg/mL
Compound: C[C@@H](O)[C@H]1C(=O)N2C(C(=O)O)=C(S[C@@H]3CN[C@H](CC[n+]4ccn(C)c4)C3)[C@H](C)[C@H]12 [Example 4-4), (4R,5S,6S)-6-[(1R)-1-hydroxyethyl]-4-methyl-3-[(2R,4S)-2-{2-(3-methyl-1-imidazolio)ethyl}pyrrolidin-4-yl]thio-7-oxo-1-azabicyclo[3.2.0]hept-2-ene-2-carboxylic acid chloride]
